Results from ChEMBL document CHEMBL5726465, “Therapeutic compounds” (2019).

Each molecule was assayed against CREB-binding protein (Homo sapiens, UniProt Q92793) (assay: In Vitro Enzyme Inhibition Assay-CREBBP Inhibition: Determination of the IC50 for the CREBBP inhibitors disclosed herein was performed as follows: CREBBP was cloned and expressed in E. Coli as His-tag protein and purified by Nickel affinity and gel-filtration chromatography. The protein was further characterized as a single band with the correct molecular weight by SDS-PAGE. CREBBP binding and inhibition was assessed by monitoring the interaction of biotinylated H4-tetraacetyl peptide (AnaSpec, H4K5/8/12/16(Ac), biotin-labeled) with the target using the AlphaScreen technology (Perkin Elmer). In a 384-well ProxiPlate CREBBP (50 nM final) was combined with peptide (20 nM final) in 50 mM HEPES (pH 7.3), 10 mM NaCl, 0.25 mM TCEP, 0.1% (w/v) BSA, and 0.005% (w/v) Brij-35 either in the presence of DMSO (final 0.4% DMSO) or compound dilution series in DMSO. After 20-minute incubation at room temperature, Alpha streptavidin donor beads and Nickel Chelate acceptor beads were added to a final concentration of 5 μg/mL. After two hours of equilibration, plates were read on an Envision instrument and the IC50 was calculated using a four parameter non-linear curve fit.The ability of the compounds disclosed herein to inhibit CBP activity was quantified and the respective IC50 value was determined.).
Chain of CREB-binding protein (Q92793 whole entry): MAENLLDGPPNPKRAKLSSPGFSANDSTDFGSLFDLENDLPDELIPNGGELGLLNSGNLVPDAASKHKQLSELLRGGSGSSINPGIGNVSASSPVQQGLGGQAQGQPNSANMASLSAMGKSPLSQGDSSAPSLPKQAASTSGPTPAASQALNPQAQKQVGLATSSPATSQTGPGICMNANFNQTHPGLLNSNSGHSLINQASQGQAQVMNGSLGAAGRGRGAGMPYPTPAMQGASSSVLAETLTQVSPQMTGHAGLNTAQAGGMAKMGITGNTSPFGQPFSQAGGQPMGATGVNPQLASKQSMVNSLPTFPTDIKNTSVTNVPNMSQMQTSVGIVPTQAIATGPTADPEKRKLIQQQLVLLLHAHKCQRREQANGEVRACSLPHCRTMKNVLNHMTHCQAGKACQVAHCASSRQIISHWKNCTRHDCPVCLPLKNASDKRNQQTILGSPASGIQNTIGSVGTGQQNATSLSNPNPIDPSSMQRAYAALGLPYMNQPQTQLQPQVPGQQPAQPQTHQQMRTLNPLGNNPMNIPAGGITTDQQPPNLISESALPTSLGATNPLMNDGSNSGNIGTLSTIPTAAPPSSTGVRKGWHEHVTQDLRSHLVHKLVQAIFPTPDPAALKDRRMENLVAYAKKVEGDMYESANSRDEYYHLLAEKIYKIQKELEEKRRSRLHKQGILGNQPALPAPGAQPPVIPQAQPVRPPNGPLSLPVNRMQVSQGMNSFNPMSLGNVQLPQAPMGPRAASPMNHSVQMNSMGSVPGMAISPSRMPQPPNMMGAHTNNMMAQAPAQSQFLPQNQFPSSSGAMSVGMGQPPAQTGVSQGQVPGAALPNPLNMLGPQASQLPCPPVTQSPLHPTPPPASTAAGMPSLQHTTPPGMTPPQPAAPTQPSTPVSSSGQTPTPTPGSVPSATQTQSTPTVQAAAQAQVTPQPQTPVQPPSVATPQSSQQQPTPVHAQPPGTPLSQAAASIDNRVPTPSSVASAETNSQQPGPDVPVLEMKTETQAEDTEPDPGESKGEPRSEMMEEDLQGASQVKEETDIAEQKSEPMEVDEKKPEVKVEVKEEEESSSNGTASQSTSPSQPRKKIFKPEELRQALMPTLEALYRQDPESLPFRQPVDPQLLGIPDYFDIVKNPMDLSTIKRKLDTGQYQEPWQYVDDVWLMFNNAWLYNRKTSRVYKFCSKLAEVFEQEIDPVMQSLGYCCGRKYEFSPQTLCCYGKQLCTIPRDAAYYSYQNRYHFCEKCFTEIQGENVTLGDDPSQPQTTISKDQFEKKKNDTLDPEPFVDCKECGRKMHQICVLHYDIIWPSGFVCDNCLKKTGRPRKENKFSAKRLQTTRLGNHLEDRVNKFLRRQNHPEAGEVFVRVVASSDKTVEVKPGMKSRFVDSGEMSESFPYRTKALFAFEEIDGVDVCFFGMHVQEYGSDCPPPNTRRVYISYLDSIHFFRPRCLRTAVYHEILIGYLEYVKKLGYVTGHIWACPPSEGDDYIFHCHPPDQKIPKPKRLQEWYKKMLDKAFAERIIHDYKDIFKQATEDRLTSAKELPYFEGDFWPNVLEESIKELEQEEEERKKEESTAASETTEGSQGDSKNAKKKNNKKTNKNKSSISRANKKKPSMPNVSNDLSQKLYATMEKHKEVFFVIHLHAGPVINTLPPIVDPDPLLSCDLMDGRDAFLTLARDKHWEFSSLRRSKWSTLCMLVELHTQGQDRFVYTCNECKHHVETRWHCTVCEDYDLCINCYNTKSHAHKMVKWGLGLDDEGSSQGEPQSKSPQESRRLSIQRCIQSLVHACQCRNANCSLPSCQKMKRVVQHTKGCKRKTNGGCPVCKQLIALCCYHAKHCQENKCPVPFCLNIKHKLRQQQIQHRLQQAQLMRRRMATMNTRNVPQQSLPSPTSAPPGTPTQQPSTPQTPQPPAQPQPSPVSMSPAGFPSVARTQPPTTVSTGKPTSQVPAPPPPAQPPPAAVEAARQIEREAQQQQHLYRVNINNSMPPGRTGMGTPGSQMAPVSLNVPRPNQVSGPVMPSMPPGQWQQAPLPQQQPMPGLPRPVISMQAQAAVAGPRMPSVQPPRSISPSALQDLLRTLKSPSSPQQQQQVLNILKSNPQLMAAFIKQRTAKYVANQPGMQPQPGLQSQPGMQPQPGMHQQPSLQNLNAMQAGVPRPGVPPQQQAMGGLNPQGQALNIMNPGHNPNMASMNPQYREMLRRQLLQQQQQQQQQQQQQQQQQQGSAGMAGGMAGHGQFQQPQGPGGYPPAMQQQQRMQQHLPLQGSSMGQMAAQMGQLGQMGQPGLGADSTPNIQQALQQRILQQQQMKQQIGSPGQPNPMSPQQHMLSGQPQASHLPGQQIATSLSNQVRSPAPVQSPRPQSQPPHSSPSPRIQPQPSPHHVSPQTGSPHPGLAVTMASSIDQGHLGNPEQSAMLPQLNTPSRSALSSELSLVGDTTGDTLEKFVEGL

IC50, < 500 nM:
Cc1cccc(Cl)c1Oc1nc(NS(=O)(=O)C(C)C)cc(-c2cc(Cl)c(=O)n(C)c2)n1
CCCCS(=O)(=O)Nc1cc(-c2cc(Cl)c(=O)n(C)c2)nc(Oc2c(C)cccc2Cl)n1
Cc1cccc(F)c1Oc1nc(NS(=O)(=O)CC2CC2)cc(-c2ccc(=O)n(C)c2)n1
Cc1cccc(F)c1Oc1nc(NS(=O)(=O)CCC(F)(F)F)cc(-c2ccc(=O)n(C)c2)n1
Cc1cccc(F)c1Oc1nc(NS(=O)(=O)CCC2CC2)cc(-c2ccc(=O)n(C)c2)n1
CCNc1cc(-c2cc(C)c(=O)n(C)c2)nc(Oc2ccc(F)cc2F)n1
CCCCS(=O)(=O)Nc1nc(Oc2c(C)cccc2C)nc(-c2cc(C)c(=O)n(C)c2)n1
